Consider five molecules from patent US11076594B2, “Pyrazolone compound or salt thereof, preparation method therefor, herbicide composition and use thereof” (QINGDAO KINGAGROOT CHEMICAL COMPOUNDS CO., LTD., priority 2015, dated 2021).

Common to all, as to type: in vivo
Details in all cases: post-emergence spray at 4-5 leaf stage, 250 g/ha active ingredient with 450 kg/ha water, rated after 3 weeks in greenhouse

The subject of one data set is corn. The experiment in a line: post-emergence stage experiment, crop (Table 1). The method, boiled down:
(§1)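 Fresh-weight-based growth control rate was assessed 3 weeks after spraying. Test compound, dissolved in acetone, with tween 80 added and diluted in water, was sprayed onto greenhouse-grown, pot-cultured weeds and crop plants at 4-5 leaves, 2-3 weeks post-sowing.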

The test system of a further data set is wheat. The experiment in a line: post-emergence stage experiment, crop (Table 1). Summed up: as §1
For the next data set, the system named is Indian mallow. The experiment in a line: weed control effect in post-emergence stage (Table 1). On the set-up: key: Level 10: completely dead; Level 9: above 95% growth control rate; Level 8: above 90% growth control rate; Level 7: above 80% growth control rate; Level 6: above 70% growth control rate; Level 5: above 60% growth control rate; Level 4: above 50% growth control rate; Level 3: above 20% growth control rate; Level 2: 5%-20% growth control rate; Level 1: below 5% growth control rate. The method, boiled down: as §1

The subject of the next data set is foxtail. The description is as above. On the set-up: key: Level 10: completely dead; Level 9: above 95% growth control rate; Level 8: above 90% growth control rate; Level 7: above 80% growth control rate; Level 6: above 70% growth control rate; Level 5: above 60% growth control rate; Level 4: above 50% growth control rate; Level 3: above 20% growth control rate; Level 2: 5%-20% growth control rate; Level 1: below 5% growth control rate. Summed up:
as §1

A further data set relates to echinochloa. Described as above. On the set-up: key: Level 10: completely dead; Level 9: above 95% growth control rate; Level 8: above 90% growth control rate; Level 7: above 80% growth control rate; Level 6: above 70% growth control rate; Level 5: above 60% growth control rate; Level 4: above 50% growth control rate; Level 3: above 20% growth control rate; Level 2: 5%-20% growth control rate; Level 1: below 5% growth control rate. Summed up: as §1

The test system of a further data set is rorippa indica. The description is as above. On the set-up: key: Level 10: completely dead; Level 9: above 95% growth control rate; Level 8: above 90% growth control rate; Level 7: above 80% growth control rate; Level 6: above 70% growth control rate; Level 5: above 60% growth control rate; Level 4: above 50% growth control rate; Level 3: above 20% growth control rate; Level 2: 5%-20% growth control rate; Level 1: below 5% growth control rate. Summed up: as §1

A further data set deals with crab grass. Described as above. On the set-up: key: Level 10: completely dead; Level 9: above 95% growth control rate; Level 8: above 90% growth control rate; Level 7: above 80% growth control rate; Level 6: above 70% growth control rate; Level 5: above 60% growth control rate; Level 4: above 50% growth control rate; Level 3: above 20% growth control rate; Level 2: 5%-20% growth control rate; Level 1: below 5% growth control rate. The method, boiled down:
as §1

For another data set, the system named is bidens bipinnata. Described as above. On the set-up: key: Level 10: completely dead; Level 9: above 95% growth control rate; Level 8: above 90% growth control rate; Level 7: above 80% growth control rate; Level 6: above 70% growth control rate; Level 5: above 60% growth control rate; Level 4: above 50% growth control rate; Level 3: above 20% growth control rate; Level 2: 5%-20% growth control rate; Level 1: below 5% growth control rate. The method, boiled down:
as §1

A further data set concerns rice. The data set is described as follows: post-emergence stage experiment, crop (Table 1). On the set-up: key: Level 10: completely dead; Level 9: above 95% growth control rate; Level 8: above 90% growth control rate; Level 7: above 80% growth control rate; Level 6: above 70% growth control rate; Level 5: above 60% growth control rate; Level 4: above 50% growth control rate; Level 3: above 20% growth control rate; Level 2: 5%-20% growth control rate; Level 1: below 5% growth control rate. Summed up:
as §1

Turning to `Cc1nn(C)c(OC(=O)c2cnn(C)c2)c1C(=O)c1ccc(C(F)(F)F)c(-n2cccn2)c1Cl` [Compound 070], the “effect on crop, Corn (level)” value with corn is reported as 3 (Level 3: above 20% growth control rate). The “effect on crop, Wheat (level)” value in the data set on wheat was 0. For the same molecule, in the data set with Indian mallow, the “weed control effect, Indian mallow (level)” value stood at 10. Further, the “weed control effect, Green foxtail (level)” value in the data set on foxtail is 9 (Level 9: above 95% growth control rate). The “weed control effect, Echinochloa (level)” value in the data set with echinochloa was 6 (Level 6: above 70% growth control rate). Further, the “weed control effect, Rorippa indica (level)” value in the data set with rorippa indica is given as 5 (Level 5: above 60% growth control rate). Further, the “weed control effect, Crab grass (level)” value in the data set on crab grass was 4 (Level 4: above 50% growth control rate). The “weed control effect, Bidens bipinnata (level)” value in the data set with bidens bipinnata is 5 (Level 5: above 60% growth control rate). Besides, the “effect on crop, Rice (level)” value in the data set with rice is 3 (Level 3: above 20% growth control rate).

For the molecule `Cc1nn(C)cc1C(=O)Oc1c(C(=O)c2ccc(C(F)(F)F)c(N3CCCC3=O)c2Cl)cnn1C` [Compound 016], the “effect on crop, Corn (level)” value with corn is on record as 3 (Level 3: above 20% growth control rate). The “effect on crop, Wheat (level)” value in the data set with wheat was 3 (Level 3: above 20% growth control rate). Further, in the data set on Indian mallow, the “weed control effect, Indian mallow (level)” value was found to be 10. In the data set with foxtail, the “weed control effect, Green foxtail (level)” value was 10. In addition, the “weed control effect, Echinochloa (level)” value in the data set on echinochloa turned out to be 10. Further, the “weed control effect, Rorippa indica (level)” value in the data set with rorippa indica was 10. Further, the “weed control effect, Crab grass (level)” value with crab grass was 10. The “weed control effect, Bidens bipinnata (level)” value with bidens bipinnata was 5 (Level 5: above 60% growth control rate). In addition, the “effect on crop, Rice (level)” value in the data set on rice was 4 (Level 4: above 50% growth control rate).

As to `CCS(=O)(=O)Oc1c(C(=O)c2ccc(C(F)(F)F)c(N3CCCCC3=O)c2Cl)cnn1C` [Compound 031], the “effect on crop, Corn (level)” value in the data set with corn is 9 (Level 9: above 95% growth control rate). For the same molecule, in the data set with wheat, the “effect on crop, Wheat (level)” value is 3 (Level 3: above 20% growth control rate). In addition, the “weed control effect, Indian mallow (level)” value in the data set on Indian mallow was 7 (Level 7: above 80% growth control rate). Moreover, the “weed control effect, Green foxtail (level)” value in the data set with foxtail is listed as 10. Moreover, the “weed control effect, Echinochloa (level)” value in the data set with echinochloa was 5 (Level 5: above 60% growth control rate). Besides, the “weed control effect, Rorippa indica (level)” value with rorippa indica was 8 (Level 8: above 90% growth control rate). Further, the “weed control effect, Crab grass (level)” value with crab grass is reported as 9 (Level 9: above 95% growth control rate). Further, the “weed control effect, Bidens bipinnata (level)” value in the data set on bidens bipinnata was 6 (Level 6: above 70% growth control rate). Besides, the “effect on crop, Rice (level)” value in the data set with rice was 1 (Level 1: below 5% growth control rate).

`CCn1nc(C)c(C(=O)c2ccc(C(F)(F)F)c(N3CCCC3=O)c2Cl)c1OC(=O)c1cn(C)nc1C` [Compound 099]: the “effect on crop, Corn (level)” value with corn was 4 (Level 4: above 50% growth control rate). Besides, in the data set on wheat, the “effect on crop, Wheat (level)” value is listed as 4 (Level 4: above 50% growth control rate). Further, the “weed control effect, Indian mallow (level)” value in the data set with Indian mallow was 3 (Level 3: above 20% growth control rate). In addition, in the data set on foxtail, the “weed control effect, Green foxtail (level)” value came to 10. Further, the “weed control effect, Echinochloa (level)” value with echinochloa worked out at 10. Moreover, in the data set with rorippa indica, the “weed control effect, Rorippa indica (level)” value was 10. Moreover, the “weed control effect, Crab grass (level)” value in the data set on crab grass worked out at 10. Also, the “weed control effect, Bidens bipinnata (level)” value with bidens bipinnata was 10. The “effect on crop, Rice (level)” value with rice is given as 10.

`CCn1ncc(C(=O)c2ccc(C(F)(F)F)c(N3CCCCCC3=O)c2Cl)c1OC(=O)c1cn(C)nc1C` [Compound 117]: in the data set with corn, the “effect on crop, Corn (level)” value is listed as 0. Further, in the data set on wheat, the “effect on crop, Wheat (level)” value came to 0. Moreover, the “weed control effect, Indian mallow (level)” value with Indian mallow was 9 (Level 9: above 95% growth control rate). Besides, the “weed control effect, Green foxtail (level)” value with foxtail was 10. Besides, in the data set with echinochloa, the “weed control effect, Echinochloa (level)” value is listed as 10. In addition, in the data set on rorippa indica, the “weed control effect, Rorippa indica (level)” value is listed as 5 (Level 5: above 60% growth control rate). Also, in the data set on crab grass, the “weed control effect, Crab grass (level)” value is 3 (Level 3: above 20% growth control rate). Besides, the “weed control effect, Bidens bipinnata (level)” value in the data set on bidens bipinnata was 10. Besides, in the data set on rice, the “effect on crop, Rice (level)” value is reported as 9 (Level 9: above 95% growth control rate).
